Assay results published in publication PMC6728138, “Quantitative mapping of protein-peptide affinity landscapes using spectrally encoded beads” (eLife, 2019).
Read-outs that look alike come from different tables or passages of the source. Ends that are not written are not given here.

Experiments:
CN = details: ref Fruman et al., 1992; cited from earlier work
Description: Consistent with MRBLE-pep measurements, ...

[1] = tested on: NFAT-driven luciferase activity in HEK293T cells; assay: In vivo calcineurin activity assay (NFAT dual luciferase reporter); assay type: cell-based; details: initial in vivo experiment, FK506 1 μM
Description: To test the degree to which in vitro MRBLE-pep affinities predict in vivo inhibition, we used a previously developed dual luciferase reporter assay to assess the activity of the NFAT2 transcription factor in HEK293T cells (Figure 6A) ([Grigoriu et al., 2013]). NFAT2 must be dephosphorylated by CN to accumulate in the nucleus, where it activates transcription of its target genes, and this interaction can be inhibited by peptides or small molecules that binds to CN. Reduction of NFAT2-dependent transcriptional activity upon expression of a competing PxIxIT peptide therefore reflects, quantitatively, the affinity of the inhibitor peptide for CN. Candidate PxIxIT inhibitors were co-expressed as GFP-fusion proteins within cells to enhance their stability and facilitate direct measurement of inhibitor concentrations.
PxIxIT peptides were fused to eGFP in pEGFPc1 vector. HEK293T cells were transfected with pEGFPc1 clones, pNFAT-Luc and CMV-Renilla in a 6-well plate format. 18 hr post transfection, 1μM FK506 or DMSO (vehicle) was added to the media as needed. […] 6 hr after pathway activation, cells were collected, washed in PBS and re-suspended in DMEM media. 80% of the cells were used to measure luciferase activity and renilla using the Dual-Glo assay system (Promega) with three technical replicates. The remaining cells were frozen and stored at −80°C. Cell lysates were prepared in RIPA buffer. 15–20 μg of lysate was analyzed by Western for expression of GFP. GFP signal was normalized to either actin or tubulin. Luciferase activity (normalized to renilla expression) was further normalized to eGFP expression. Data represent at least three experimental replicates.

calcineurin (CN) = target: T1, calcineurin (CN) (Homo sapiens, UniProt Q08209); assay: MRBLE-pep calcineurin binding assay (concentration-dependent)
T1 construct: human calcineurin A isoforms (truncated at residue 400); made in house; host or cells: E. coli BL21 (DE3)
T1 sequence (Q08209 1-400 limits assumed): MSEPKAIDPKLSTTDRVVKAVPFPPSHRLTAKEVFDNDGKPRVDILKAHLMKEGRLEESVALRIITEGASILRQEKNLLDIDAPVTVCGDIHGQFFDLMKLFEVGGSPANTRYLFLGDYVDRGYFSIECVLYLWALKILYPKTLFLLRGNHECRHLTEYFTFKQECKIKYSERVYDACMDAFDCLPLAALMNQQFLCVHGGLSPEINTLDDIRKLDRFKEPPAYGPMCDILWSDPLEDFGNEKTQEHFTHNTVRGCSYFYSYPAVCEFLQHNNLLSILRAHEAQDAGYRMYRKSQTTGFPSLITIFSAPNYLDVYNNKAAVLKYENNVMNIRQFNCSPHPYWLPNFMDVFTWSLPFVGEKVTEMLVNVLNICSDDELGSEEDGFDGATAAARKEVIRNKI
T1 sequence (P63098 whole entry partner, the tested form may be a part, canonical isoform): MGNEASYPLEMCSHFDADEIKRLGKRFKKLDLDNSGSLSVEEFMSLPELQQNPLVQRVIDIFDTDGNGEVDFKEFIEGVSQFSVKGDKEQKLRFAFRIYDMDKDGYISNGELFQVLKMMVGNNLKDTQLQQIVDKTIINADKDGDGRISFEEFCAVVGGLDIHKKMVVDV
Procedure: MRBLEs were prepared by transferring a 20 μL aliquot from a 600 μL suspension (∼3000–8000 beads depending on pellet size) to a 100 μL PCR strip (20 μL for each CN concentration), exchanging buffer via 3 cycles of iterative pelleting, decanting, and resuspension with 0.1% PBST containing 5% BSA, pH = 7.5 (100 μL), and then left mixing at ∼5 °C on a rotator in the same wash buffer overnight (∼14 hr). MRBLEs were then buffer exchanged once again with CN binding buffer (50 mM Tris pH = 7.5, 150 mM NaCl, 0.1% TWEEN 20) via three iterative cycles of pelleting, decanting, and resuspension.
After incubation, MRBLEs were pelleted, decanted, and washed once with 0.1% PBST (100 μL). After a final round of pelleting and decanting, 20 μL of 0.1% PBST was added and the beads were transferred to a quartz microscope slide for imaging.
The affinity ( Kd ) for each peptide in a MBRLE library was determined via a two-step nonlinear regression using a single-site binding model:(1) Ii=(Imax[CNtotal])/(Kd,i+[CNtotal]) where Ii is the median measured fluorescence intensity for each peptide, Kd,i is the dissociation constant for that interaction, [ CNtotal ] is total CN concentration, and Imax is a global variable representing the fluorescence intensity once MRBLE-pep beads are saturated. First, we determined the global saturation value ( Imax ), by globally fitting the top 80% highest-intensity MRBLE codes. Next, we globally fit the entire data set using this Imax value to yield an estimated absolute affinity ( Kd ) for all peptides in the library. […] Differences in binding affinity were calculated relative to a reference peptide using the standard equation:(2) ΔΔG=RTln(Kd,i/Kd,ref)
Next, we used this reference value and calculated differences in binding affinity ( ΔΔG ) to estimate absolute Kd values for each peptide within the calibration and full calibration libraries (Figure 2—source data 1, Figure 2—source data 2, Figure 5—source data 1, Figure 5—source data 2, Figure 5—source data 3, Figure 5—source data 4).

Compound: C=CC[C@@H]1/C=C(\C)C[C@H](C)C[C@H](OC)[C@H]2O[C@@](O)(C(=O)C(=O)N3CCCC[C@H]3C(=O)O[C@H](/C(C)=C/[C@@H]3CC[C@@H](O)[C@H](OC)C3)[C@H](C)[C@@H](O)CC1=O)[C@H](C)C[C@@H]2OC [FK506]
- IC50 (CN): ~0.5 nM
- NFAT-driven luciferase activity, normalized to renilla and eGFP expression, relative to empty vector (Data) ([1]; replicate 1): 0.09
- NFAT-driven luciferase activity, normalized, relative to empty vector (Data) ([1]; replicate 2): 0.08616
- NFAT-driven luciferase activity, normalized, relative to empty vector (Data) ([1]; replicate 3): 0.09188

Compound: HAVIVITGPH-NH2
- Kd (calcineurin (CN); bold value over the codes, read-out: kd, 'Triplicate high' library): 1270 ± 130 nM

Compound: HPSIVITGPH-NH2
- Kd (calcineurin (CN); kd, 'Triplicate high' library): 880 ± 260 nM

Compound: HPVIVVTGPH-NH2
- Kd (calcineurin (CN); apparent Kd, 'Triplicate low' (Figure 2C, measure not given)): 2000 ± 400 nM
- Kd (calcineurin (CN); kd, 'Triplicate high' library): 920 ± 250 nM
